Measured values taken from patent publication US9388124B2, “Ingenol-3-acylates I” (LEO LABORATORIES LIMITED, priority 2010, dated 2016).
Where two headings read alike, the source gives them in different places.

Key:
Type in all cases: cell-based
[1] = system: PMN's (polymorphonuclear leukocytes); assay: Neutrophil oxidative burst assay; settings: Leukocyte, 40 min, read-out: Neutrophil oxidative burst Rel EC50 range
Method: Neutrophil Oxidative Burst Assay:
PMN's (polymorphonuclear leukocytes) were isolated and purified from fresh buffy coats by sequential sedimentation, density centrifugation and lysis of contaminating erythrocytes. Buffy coats were incubated with 2% methocel for 30-45 min to differentially sediment red blood cells. The leukocyte-rich supernatant was transferred to lymphoprep tubes to remove mononuclear cells by density centrifugation (400×g, 30 min). The pellet was resuspended and any remaining erythrocytes lysed using 0.2% NaCl for 30 sec before restoring isotonicity by the addition of 1.2% NaCl. This step was repeated until the cell pellet appears relatively free of red blood cells. Cells were resuspended in DPBS (Dulbecco's Phosphate Buffered Saline) (w.o. Ca^2+, Mg^2+) and the concentration adjusted to 1.4×10^6 cells/ml in HBSS (Hanks Balanced Salt solution) (w Ca^2+, Mg^2+) containing 0.1% BSA (Bovine Serum Albumin) and 5 mM glucose just prior to assay initiation. Titrated reference and test compounds were pre-mixed with HE (Hydroethidine) (10 μM final assay concentration) before addition to 96-well plates containing 2.5×10^5 cells. Following 40 min incubation at RT, changes in the respiratory burst was estimated by measuring fluorescence at 579 nm (excitation: 485 nm) using an Envision plate reader.
Test compound titration curves were fitted to a four-parameter sigmoidal curve after normalizing the effect of the test compound to the effect of the positive control (5×10^−7 M PEP0005). Rel EC50 denotes the concentration of test compound producing an effect that is midway between the fitted top and bottom. Abs EC50 is the concentration of test compound that provokes a response corresponding to 50% of the maximal effect associated with the positive control (5×10^−7 M PEP0005).

[2] = system: Primary human epidermal keratinocytes, HeKa; assay: HeKa cytokine release (IL-8) assay
Method: HeKa Cytokine Release (IL-8) Assay:
Primary human epidermal keratinocytes, HeKa, were seeded (10.000 cells/well) in 96-well plates the day before the assay. Test compounds were diluted in DMSO (dimethyl sulfoxide) and further diluted in assay medium and pipetted into wells of 96 well-plates containing HeKa cells. The plates were incubated for 6 h at 37° C. in humidified air with 5% CO2. Plates were centrifuged briefly to spin down cells at 4° C., the supernatant was removed and analysed by Meso Scale Discovery (MSD) 4-spot cytokine assay (Pro-inflammatory II Ultra Sensitive kit, MSD, MD, USA). The MSD assay employs a sandwich immunoassay format where capture antibodies are coated in a patterned array on the bottom of the wells of a 4-Spot-Multi-MSD plate. Standard samples were incubated in the MULTI-SPOT plates as well, and the cytokine (IL-8) binds to its corresponding capture antibody spot. The cytokine level was quantitated on a SECTOR™ Imager using a cytokine-specific Detection Antibody labelled with MSD SULFO-TAG™ reagent.
Test compound titration curves were fitted to a four-parameter sigmoidal curve after normalizing the effect of the test compound to the effect of the positive control (1.5×10^−7 M PEP0005). Rel EC50 denotes the concentration of test compound producing an effect that is midway between the fitted top and bottom.

[3] = system: HeLa cells; assay: Necrosis assay; settings: Homo sapiens, 0.5 h, read-out: HeLa Necrosis EC50 range
Method: HeLa cells (ATCC CCL-002) were grown in minimal essential medium (Invitrogen catalog no. 42360) containing 10% fetal bovine serum, 100 IU/ml penicillin and 100 μg/ml streptomycin. 4,000-6,000 cells were seeded into 96-well black ViewPlates-plates, clear bottom, (Perkin Elmer) in 100 μl medium and incubated overnight. Compounds were dissolved and pre-diluted in DMSO in 96-well polypropylene plates (Greiner) in a concentration range of 15 μM to 600 μM. At the time of the experiment cell plates were placed on heating blocks at 37° C., medium was removed and 40 μl fresh, pre-warmed medium was added per well. Cells were incubated for 15 min before addition of compounds. In parallel, 3 μl of compounds were diluted with 197 μl growth medium on a Tecan freedom-EVO pipetting station using 250 μl/s pipetting speed, in order to ensure effective mixing of the highly concentrated compound solutions with the aqueous phase. These pre-dilution plates were then equilibrated on heating blocks at 37° C. for 10 min. 80 μl pre-diluted compound were transferred manually to the corresponding wells containing HeLa cells yielding compound concentrations of 10 μM to 400 μM. Control conditions were 1% DMSO in growth medium (100% viability) and 400 μM ingenol mebutate in growth medium (0% viability). Plates were incubated on the heating blocks at 37° C. for 30 min. At the end of the incubation 10 μl PrestoBlue reagent (Invitrogen) were added to each well, plates were sealed with black seal, followed by incubation at 37° C. for 10 min with gentle shaking (150 rpm). Subsequently, plates were placed at room temperature for 20-30 min. Plates were read immediately after on an Envision Fluorescence reader (Perkin Elmer) with excitation at 535 nm and emission at 630 nm. Test compound titration curves were fitted to a four-parameter sigmoidal curve after normalizing the effect of the test compound to the effect of the positive control (4 10^−4 M PEP0005/ingenol mebutate). AbsEC50 denotes the concentration of test compound producing 50% effect.

[4] = HEKa, 6 h, read-out: HeKa cytokine release (IL-8) Rel EC50 range
[5] = PMNs, 40 min at RT, hydroethidine fluorescence, normalized to 5×10^−7 M PEP0005
[6] = HeKa cells, 6 h at 37° C., MSD IL-8, normalized to 1.5×10^−7 M PEP0005, read-out: HeKa cytokine release (IL-8) Rel EC50 range
[7] = HeLa cells, 30 min at 37° C., PrestoBlue, AbsEC50, normalized to 4 10^−4 M PEP0005/ingenol mebutate

Structure (SMILES)	EC50 [1]	EC50 [2, 4]	EC50 ([3]; HeLa)	EC50 [1, 5]	EC50 [2, 6]	EC50 [3, 7]
CC(C)=CC(=O)O[C@H]1C(C)=C[C@]23C(=O)[C@@H](C=C(CO)[C@@H](O)[C@]12O)[C@H]1[C@@H](C[C@H]3C)C1(C)C [Compound 102, Ingenol 3-(3-methyl-butenoate)]	< 20 nM	20 to 100 nM	150000 to 350000 nM			
CC1=C[C@]23C(=O)[C@@H](C=C(CO)[C@@H](O)[C@]2(O)[C@H]1OC(=O)C(C)=C(C)C)[C@H]1[C@@H](C[C@H]3C)C1(C)C [Compound 103, Ingenol 3-(2,3-dimethyl-butenoate)]	< 20 nM	< 20 nM	150000 to 350000 nM			
CC1=C[C@]23C(=O)[C@@H](C=C(CO)[C@@H](O)[C@]2(O)[C@H]1OC(=O)C(c1ccccc1)c1ccccc1)[C@H]1[C@@H](C[C@H]3C)C1(C)C [Compound 119, Ingenol 3-(2,2-diphenylacetate)]	< 20 nM	< 20 nM	< 150000 nM			
CC1=C[C@]23C(=O)[C@@H](C=C(CO)[C@@H](O)[C@]2(O)[C@H]1OC(=O)Cc1ccccc1)[C@H]1[C@@H](C[C@H]3C)C1(C)C [Compound 112, Ingenol 3-(phenyl-acetate)]				< 20 nM	> 100 nM	150000 to 350000 nM
CC1=C[C@]23C(=O)[C@@H](C=C(CO)[C@@H](O)[C@]2(O)[C@H]1OC(=O)CC(C)(C)C)[C@H]1[C@@H](C[C@H]3C)C1(C)C [Compound 108, Ingenol 3-(3,3-dimethyl-butanoate)]	< 20 nM	20 to 100 nM	150000 to 350000 nM			
C/C=C(/C)C(=O)O[C@H]1C(C)=C[C@]23C(=O)[C@@H](C=C(CO)[C@@H](O)[C@]12O)[C@H]1[C@@H](C[C@H]3C)C1(C)C [PEP005, Ingenol-3-angelate, reference compound]				< 20 nM	< 20 nM	150000 to 350000 nM
CC1=C[C@]23C(=O)[C@@H](C=C(CO)[C@@H](O)[C@]2(O)[C@H]1OC(=O)C(C)C1CCCCC1)[C@H]1[C@@H](C[C@H]3C)C1(C)C (stereo partly drawn) [Compound 114, Ingenol 3-(2-cyclohexylpropanoate)]	< 20 nM	< 20 nM	150000 to 350000 nM			
C=C(CC)C(=O)O[C@H]1C(C)=C[C@]23C(=O)[C@@H](C=C(CO)[C@@H](O)[C@]12O)[C@H]1[C@@H](C[C@H]3C)C1(C)C [Compound 104, Ingenol 3-(2-methylene-butyrate)]	< 20 nM	20 to 100 nM	150000 to 350000 nM			
C/C=C(\C)C(=O)O[C@H]1C(C)=C[C@]23C(=O)[C@@H](C=C(CO)[C@@H](O)[C@]12O)[C@H]1[C@@H](C[C@H]3C)C1(C)C [Compound 111, Ingenol 3-tiglate]				< 20 nM	20 to 100 nM	< 350000 nM
